We go through 27 compounds from PMC4207540 (Journal of Medicinal Chemistry, 2014).

The target in one assay is IDH1(R132H) (Homo sapiens, UniProt O75874, R132H). The conditions noted are these: for fold less active than compound 2 against IDH1(R132H): relative to compound 2.
Assay [1] deals with breast cancer and leukemia cells. The conditions noted are these: cited from earlier work.
Assay [2] addresses T1, WT IDH1 (Homo sapiens, UniProt O75874).
For the next assay, the system named is WI-38 fibroblast cells. Briefly: Cytotoxicity assay. Format: cell-based.
The test system of the next assay is HT1080 cells. Put plainly: D2HG production inhibition in HT1080 cells. As to conditions: Homo sapiens, HT-1080, 48 h, read-out: IC50 for inhibition of D2HG.
The test system of another assay is BXD-4687. In kind it is cell-based, human.
Another assay has as its system BXD-3752. Format: cell-based, human.
In assay [3] the target is T1, WT IDH1. Put plainly: biochemical.

Sequence of IDH1(R132H) (O75874 whole entry R132H): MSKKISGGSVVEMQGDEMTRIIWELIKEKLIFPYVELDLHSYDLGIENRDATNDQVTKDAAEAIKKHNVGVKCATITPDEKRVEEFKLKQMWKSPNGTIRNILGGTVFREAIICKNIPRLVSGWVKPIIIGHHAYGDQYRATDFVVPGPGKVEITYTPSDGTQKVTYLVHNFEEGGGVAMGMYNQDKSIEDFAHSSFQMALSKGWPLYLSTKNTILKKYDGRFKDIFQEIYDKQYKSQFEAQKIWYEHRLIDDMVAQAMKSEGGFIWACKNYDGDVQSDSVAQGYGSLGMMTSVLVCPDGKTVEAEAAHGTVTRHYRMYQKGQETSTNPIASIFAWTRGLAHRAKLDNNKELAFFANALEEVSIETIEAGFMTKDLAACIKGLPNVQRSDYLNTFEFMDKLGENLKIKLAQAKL
T1 sequence (O75874 whole entry): as the sequence (O75874 whole entry R132H) above, with H132R counted along it

Turning to `CC(c1ccccc1)c1cccc(=O)n1O` (stereo not drawn) [Compound 16], at IDH1(R132H), the “inhibitory activity against IDH1(R132H), in words” value is “inactive”. Consider `Cc1ccn(O)c(=O)c1Cc1ccccc1` [Compound 30], for which the “fold less active than compound 2 against IDH1(R132H)” value at IDH1(R132H) amounted to 50 fold. For the compound `O=c1n(O)ccn1Cc1ccccc1` [Compound 26], on IDH1(R132H), the “inhibitory activity against IDH1(R132H), in words” value is listed as “lack of activity”. Take `Cc1cc(C2CCCCC2)n(O)c(=O)c1` [Compound 9, Ciclopirox, reference compound]: at IDH1(R132H), the “inhibitory activity against IDH1(R132H), in words” value is “inactive”. In addition, the antiproliferative activity result in assay [1] was “low micromolar”. Turning to `Cc1cc(Cc2cccc(O)c2)n(O)c(=O)c1` [Compound 40], on WT IDH1 [2], the “inhibitory activity against WT IDH1, in words” value is “do not inhibit the enzyme”. Consider `Cc1cc(Cc2ccccc2)oc(=O)c1` [Compound 28], for which the “inhibitory activity against IDH1(R132H), in words” value against IDH1(R132H) was “inactive”. For the compound `O=c1ccc(Cc2ccccc2)c[nH]1` [Compound 21], the “inhibitory activity against IDH1(R132H), in words” value on IDH1(R132H) is recorded as “lack of activity”. Turning to `O=c1ccn(O)c(=O)n1Cc1ccccc1` [Compound 25], the “inhibitory activity against IDH1(R132H), in words” value against IDH1(R132H) is recorded as “lack of activity”.

Turning to `Cc1cc(Cc2cccc(F)c2)n(O)c(=O)c1` [Compound 43], on IDH1(R132H), the “fold less active than compound 2 against IDH1(R132H)” value is given as approximately 10 fold.

As for `COc1ccccc1Cc1cc(C)cc(=O)n1O` [Compound 41], the “fold less active than compound 2 against IDH1(R132H)” value at IDH1(R132H) is reported as approximately 2 fold. On to `COc1ccc(-c2ccc(Cc3cc(C)cc(=O)n3O)cc2)cc1` [Compound 58], for which the “selectivity for BT-142 over glioma cells without IDH1 mutation (BXD-4687, -3752)” value in the assay on BT-142 glioma cells is recorded as more than 10 fold.

Take `Cc1cc(Cc2ccccc2)oc(=S)c1` [Compound 29]: the “inhibitory activity against IDH1(R132H), in words” value on IDH1(R132H) is “inactive”. Consider `O=c1ccc(-c2ccccc2)cn1O` [Compound 5], for which the “inhibitory activity against IDH1(R132H), in words” value at IDH1(R132H) is recorded as “very weak activity”. Take `O=c1cccc(-c2ccccc2)n1O` [Compound 15]: on IDH1(R132H), the “inhibitory activity against IDH1(R132H), in words” value was “inactive”. Turning to `Cc1cc(Cc2c(F)c(F)c(F)c(F)c2F)n(O)c(=O)c1` [Compound 44], the “fold less active than compound 2 against IDH1(R132H)” value on IDH1(R132H) is on record as approximately 10 fold. In the case of `Cc1cc(Cc2ccccc2)n(O)c(=O)c1` [Compound 2], in the assay on WI-38 fibroblast cells (Homo sapiens, WI-38, 48 h, read-out: EC50 against WI-38), the EC50 (commonly the concentration at which the effect is half-maximal) was more than 50 µM.

In the case of `Cc1cc(Cc2ccccc2O)n(O)c(=O)c1` [Compound 42], at IDH1(R132H), the “fold less active than compound 2 against IDH1(R132H)” value is approximately 2 fold. On to `Cc1cc(Cc2ccccc2)n(N)c(=O)c1` [Compound 27], for which the “fold less active than compound 2 against IDH1(R132H)” value on IDH1(R132H) was found to be 20 fold. As for `Cc1cc(COc2ccccc2)n(O)c(=O)c1` [Compound 19], the “fold less active than compound 2 against IDH1(R132H)” value at IDH1(R132H) was approximately 4 fold. As to `O=c1cccc(Cc2ccccc2)n1O` [Compound 7], the “inhibitory activity against WT IDH1, in words” value against WT IDH1 [2] is on record as “do not inhibit the enzyme”. As for `O=c1ccc(CCCc2ccccc2)cn1O` [Compound 11], the “inhibitory activity against IDH1(R132H), in words” value against IDH1(R132H) is listed as “lose the inhibitory activity”. On to `COc1cccc(Cc2cc(C)cc(=O)n2O)c1` [Compound 39], for which the “inhibitory activity against WT IDH1, in words” value on WT IDH1 [2] is “do not inhibit the enzyme”.

Regarding `CC(C)c1cc(Cc2ccccc2)n(O)c(=O)c1` [Compound 33], the “inhibitory activity against WT IDH1, in words” value against WT IDH1 [2] is listed as “do not inhibit the enzyme”. For the same compound, the IC50 (commonly the concentration at which inhibition is half-maximal) with HT1080 cells was more than 30 µM. With `Cc1cc(C)n(O)c(=O)c1` [Compound 20], the “inhibitory activity against IDH1(R132H), in words” value against IDH1(R132H) is “inactive”. For `Cc1ccccc1C(C(=O)NC1CCCCC1)N(C(=O)Cn1ccnc1C)c1cccc(F)c1` (stereo not drawn) [Compound 1], the “activity against WI-38, in words” value in the assay with WI-38 fibroblast cells is “no activity”. Moreover, the “activity against BXD-4687, in words” value in the assay on BXD-4687 is given as “no activity”. Besides, the “activity against BXD-3752, in words” value in the assay with BXD-3752 is reported as “no activity”. Consider `O=c1cc(O)cc(Cc2ccccc2)n1O` [Compound 34], for which the Ki (in general, a dissociation constant, usually derived from enzyme kinetics or from competition with a known ligand) on WT IDH1 [3] is more than 30 µM. For the same compound, the “inhibitory activity against WT IDH1, in words” value against WT IDH1 [2] is on record as “do not inhibit the enzyme”. Further, in the assay on HT1080 cells, the IC50 was 9.7 ± 1.8 µM. With `O=c1ccc(CCc2ccccc2)cn1O` [Compound 10], on IDH1(R132H), the “inhibitory activity against IDH1(R132H), in words” value is “lose the inhibitory activity”.
